Experimental data as given in patent US20070049564A1 (Wyeth, priority 2005, published 2007).
In brackets after ≈: the same amount, converted by molar mass. Read-outs that look alike come from different tables or passages of the source.

Experiments:
E. coli GC 2236 = assay: MIC, broth microdilution; conditions: Escherichia coli
E. coli GC 2235 = assay: MIC, broth microdilution; conditions: Escherichia coli
E. coli GC 2233 = assay: MIC, broth microdilution; conditions: Escherichia coli
E. coli GC 2270 = assay: MIC, broth microdilution; conditions: Escherichia coli
E. coli GC 2271 = assay: MIC, broth microdilution; conditions: Escherichia coli
E. coli GC 3226 = assay: MIC, broth microdilution; conditions: Escherichia coli
E. coli GC 1073 = assay: MIC, broth microdilution; conditions: Escherichia coli
S. typhimurium GC 2172 = assay: MIC, broth microdilution; conditions: Salmonella enterica, TYPHIMURIUM
S. aureus GC 1079 = assay: MIC, broth microdilution; conditions: Staphylococcus aureus
S. aureus GC 6335 = assay: MIC, broth microdilution; conditions: Staphylococcus aureus
S. aureus GC 6469 = assay: MIC, broth microdilution; conditions: Staphylococcus aureus
E. faecalis GC 4555 = assay: MIC, broth microdilution; conditions: Enterococcus faecalis
E. faecalis GC 2265 = assay: MIC, broth microdilution; conditions: Enterococcus faecalis
E. faecium GC 4556 = assay: MIC, broth microdilution; conditions: Enterococcus faecium
E. faecium GC 2243 = assay: MIC, broth microdilution; conditions: Enterococcus faecium
S. pyogenes GC 4563 = assay: MIC, broth microdilution; conditions: Streptococcus pyogenes
S. agalactiae GC 4564 = assay: MIC, broth microdilution; conditions: Streptococcus agalactiae
c. albicans GC 3066 = assay: MIC, broth microdilution
E. coli = assay: Range of MIC for E. coli strains; conditions: Escherichia coli
Staph. = assay: Range of MIC for Staph. strains, including MRSA; conditions: Staphylococcus aureus, MRSA

## CCCN(CC(=O)Nc1cc(N(C)C)c2c(c1O)C(=O)C1=C(O)[C@]3(O)C(=O)C(C(N)=O)=C(O)[C@@H](N(C)C)[C@@H]3C[C@@H]1C2)C(=O)OCOC(=O)c1ccc(-c2ccccc2)cc1 [Example 24, ({[(2-{[(5aR,6aS,7S,10aS)-9-(aminocarbonyl)-4,7-bis(dimethylamino)-1,8,10a,11-tetrahydroxy-10,12-dioxo-5,5a,6,6a,7,10,10a,12-octahydrotetracen-2-yl]amino}-2-oxoethyl)(propyl)amino]carbonyl}oxy)methyl 1,1′-biphenyl-4-carboxylate]
E. coli GC 2236; GC2236, read-out: MINIMAL INHIBITORY CONCENTRATION MIC, pre-incubated in Mouse Serum
  MIC: 1 µg/mL (≈ 1.21 µM)
E. coli GC 2236; GC2236, read-out: MINIMAL INHIBITORY CONCENTRATION MIC, pre-incubated in Water
  MIC: > 64 µg/mL
E. coli GC 2235; GC2235, read-out: MINIMAL INHIBITORY CONCENTRATION MIC, pre-incubated in Mouse Serum
  MIC: 0.5 µg/mL (≈ 0.605 µM)
E. coli GC 2235; GC2235, read-out: MINIMAL INHIBITORY CONCENTRATION MIC, pre-incubated in Water
  MIC: > 64 µg/mL
E. coli GC 2233; GC2233, read-out: MINIMAL INHIBITORY CONCENTRATION MIC, pre-incubated in Mouse Serum
  MIC: 1 µg/mL (≈ 1.21 µM)
E. coli GC 2233; GC2233, read-out: MINIMAL INHIBITORY CONCENTRATION MIC, pre-incubated in Water
  MIC: > 64 µg/mL
E. coli GC 2270; GC2270, read-out: MINIMAL INHIBITORY CONCENTRATION MIC, pre-incubated in Mouse Serum
  MIC: 0.5 µg/mL (≈ 0.605 µM)
E. coli GC 2270; GC2270, read-out: MINIMAL INHIBITORY CONCENTRATION MIC, pre-incubated in Water
  MIC: > 64 µg/mL
E. coli GC 2271; GC2271, read-out: MINIMAL INHIBITORY CONCENTRATION MIC, pre-incubated in Mouse Serum
  MIC: 0.5 µg/mL (≈ 0.605 µM)
E. coli GC 2271; GC2271, read-out: MINIMAL INHIBITORY CONCENTRATION MIC, pre-incubated in Water
  MIC: > 64 µg/mL
E. coli GC 3226; GC3226, read-out: MINIMAL INHIBITORY CONCENTRATION MIC, pre-incubated in Mouse Serum
  MIC: 1 µg/mL (≈ 1.21 µM)
E. coli GC 3226; GC3226, read-out: MINIMAL INHIBITORY CONCENTRATION MIC, pre-incubated in Water
  MIC: > 64 µg/mL
E. coli GC 1073; GC1073, read-out: MINIMAL INHIBITORY CONCENTRATION MIC, pre-incubated in Mouse Serum
  MIC: 1 µg/mL (≈ 1.21 µM)
E. coli GC 1073; GC1073, read-out: MINIMAL INHIBITORY CONCENTRATION MIC, pre-incubated in Water
  MIC: > 64 µg/mL
S. typhimurium GC 2172; read-out: MINIMAL INHIBITORY CONCENTRATION MIC, pre-incubated in Mouse Serum
  MIC: 8 µg/mL (≈ 9.69 µM)
S. typhimurium GC 2172; read-out: MINIMAL INHIBITORY CONCENTRATION MIC, pre-incubated in Water
  MIC: > 64 µg/mL
S. aureus GC 1079; GC1079, read-out: MINIMAL INHIBITORY CONCENTRATION MIC, pre-incubated in Mouse Serum
  MIC: 2 µg/mL (≈ 2.42 µM)
S. aureus GC 1079; GC1079, read-out: MINIMAL INHIBITORY CONCENTRATION MIC, pre-incubated in Water
  MIC: 64 µg/mL (≈ 77.5 µM)
S. aureus GC 6335; GC6335, read-out: MINIMAL INHIBITORY CONCENTRATION MIC, pre-incubated in Mouse Serum
  MIC: 2 µg/mL (≈ 2.42 µM)
S. aureus GC 6335; GC6335, read-out: MINIMAL INHIBITORY CONCENTRATION MIC, pre-incubated in Water
  MIC: 16 µg/mL (≈ 19.4 µM)
S. aureus GC 6469; GC6469, read-out: MINIMAL INHIBITORY CONCENTRATION MIC, pre-incubated in Mouse Serum
  MIC: 4 µg/mL (≈ 4.84 µM)
S. aureus GC 6469; GC6469, read-out: MINIMAL INHIBITORY CONCENTRATION MIC, pre-incubated in Water
  MIC: > 64 µg/mL
E. faecalis GC 4555; GC4555, read-out: MINIMAL INHIBITORY CONCENTRATION MIC, pre-incubated in Mouse Serum
  MIC: 1 µg/mL (≈ 1.21 µM)
E. faecalis GC 4555; GC4555, read-out: MINIMAL INHIBITORY CONCENTRATION MIC, pre-incubated in Water
  MIC: 64 µg/mL (≈ 77.5 µM)
E. faecalis GC 2265; GC2265, read-out: MINIMAL INHIBITORY CONCENTRATION MIC, pre-incubated in Mouse Serum
  MIC: 2 µg/mL (≈ 2.42 µM)
E. faecalis GC 2265; GC2265, read-out: MINIMAL INHIBITORY CONCENTRATION MIC, pre-incubated in Water
  MIC: 32 µg/mL (≈ 38.7 µM)
E. faecium GC 4556; GC4556, read-out: MINIMAL INHIBITORY CONCENTRATION MIC, pre-incubated in Mouse Serum
  MIC: 1 µg/mL (≈ 1.21 µM)
E. faecium GC 4556; GC4556, read-out: MINIMAL INHIBITORY CONCENTRATION MIC, pre-incubated in Water
  MIC: 32 µg/mL (≈ 38.7 µM)
E. faecium GC 2243; GC2243, read-out: MINIMAL INHIBITORY CONCENTRATION MIC, pre-incubated in Mouse Serum
  MIC: 0.5 µg/mL (≈ 0.605 µM)
E. faecium GC 2243; GC2243, read-out: MINIMAL INHIBITORY CONCENTRATION MIC, pre-incubated in Water
  MIC: 2 µg/mL (≈ 2.42 µM)
S. pyogenes GC 4563; GC4563, read-out: MINIMAL INHIBITORY CONCENTRATION MIC, pre-incubated in Mouse Serum
  MIC: < 0.06 µg/mL
S. pyogenes GC 4563; GC4563, read-out: MINIMAL INHIBITORY CONCENTRATION MIC, pre-incubated in Water
  MIC: < 0.06 µg/mL
S. agalactiae GC 4564; GC4564, read-out: MINIMAL INHIBITORY CONCENTRATION MIC, pre-incubated in Mouse Serum
  MIC: 0.5 µg/mL (≈ 0.605 µM)
S. agalactiae GC 4564; GC4564, read-out: MINIMAL INHIBITORY CONCENTRATION MIC, pre-incubated in Water
  MIC: 8 µg/mL (≈ 9.69 µM)
c. albicans GC 3066; Candida albicans, GC3066, read-out: MINIMAL INHIBITORY CONCENTRATION MIC
  MIC: > 64 µg/mL
c. albicans GC 3066; pre-incubated in Water
  MINIMAL INHIBITORY CONCENTRATION MIC: >64 UG/ML
E. coli; 20 h, read-out: Range of MIC, E. coli (Mouse Serum)
  MIC: 0.5 to 2 µg/mL (≈ 0.605 to 2.42 µM)
E. coli; read-out: Range of MIC, E. coli (Water)
  MIC: > 64 µg/mL
E. coli; read-out: Range of MIC, E. coli (mouse serum)
  MIC: 0.5 to 2 µg/mL (≈ 0.605 to 2.42 µM)
E. coli; read-out: Range of MIC, E. coli (water)
  MIC: > 64 µg/mL
Staph.; read-out: Range of MIC, Staph (Mouse Serum)
  MIC: 0.25 to 4 µg/mL (≈ 0.303 to 4.84 µM)
Staph.; read-out: Range of MIC, Staph. (mouse serum)
  MIC: 0.25 to 4 µg/mL (≈ 0.303 to 4.84 µM)
